One block for each compound: values may come before it.
Key:
[1] = test system: MPTP macaque model of Parkinson's disease; experiment: MPTP macaque model of advanced stages of PD; format: in vivo, Macaca fascicularis
Protocol: The anti-parkinsonian efficacy of the compound of formula (I) according to the present invention (i.e., PXT002331) was evaluated in the 1-methyl-4-phenyl-1,2,3,6-tetrahydropyridine (MPTP) macaque model of Parkinson's disease (using macaques of the species Macaca fascicularis), which reproduces most of the clinical and pathological hallmarks of Parkinson's disease and is considered a “gold standard” (see Porras G et al., Cold Spring Harb Perspect Med., 2(3):a009308, 2012 and references cited therein for a general description of the MPTP model). […] The anti-parkinsonian efficacy of PXT002331 (25 mg/kg) was further evaluated in combination with low (suboptimal) doses of L-dopa (levodopa; 4-9 mg/kg) (see FIGS. 5B and 5C). In this model, levodopa methyl ester was administered sub-cutaneously together with a fixed dose of benserazide (50 mg total), a peripherally-acting levodopa decarboxylase inhibitor. Doses of PXT002331 were orally administered twice a day during 4 days, and assessment of parkinsonian scores took place at day 4 (between 1 and 2 h after L-dopa administration, i.e., between 2 and 3 h after PXT002331 administration). […] The results of a dose-response evaluation of the combination of PXT002331 (at doses from 2 mg/kg to 100 mg/kg) with L-dopa (low dose) are shown in FIG. 5D (the assessment of parkinsonian scores took place at day 4).

[2] = test system: CLD MPTP macaque model of early-stage PD; experiment: chronic low doses of MPTP (CLD MPTP) macaque model of early-stage PD; format: in vivo, Macaca fascicularis
Protocol: In this model, levodopa was administered orally as Madopar which contains benserazide hydrochloride (4:1 ratio of levodopa:benserazide), a peripherally-acting levodopa decarboxylase inhibitor. In this experiment, each monkey was equipped with a detector of movements and signals were collected with 24 light beams and a video track recorder in order to discriminate all types of movements. The movements of each monkey were quantified every 5 min using computer-based activity monitors. Total values are presented over 4 hours.

CLD MPTP macaque model = experiment: Variable Delayed Response (VDR) task, cognitive performance of CLD MPTP monkeys; format: in vivo, Macaca fascicularis
Source text: Monkeys that receive chronic low doses of MPTP administration (CLD MPTP macaque model) develop cognitive impairment, as measured in the Variable Delayed Response (VDR) task. It was therefore decided to evaluate the cognitive impact of PXT002331 in these animals, in order to assess potential side effects on cognitive symptoms.

[3] = in vivo pharmacokinetics in rats (plasma and brain exposure); set-up: species or system male Sprague-Dawley rats; settings: rat
Protocol: PXT002331 and PXT001858 were administered per os (p.o.) at 10 mg/kg to male Sprague-Dawley rats. Volume of administration was 10 ml/kg. In parallel, PXT002331 was also administered intravenously (i.v.) at 1 mg/kg, with a volume of administration of 2 ml/kg. Blood samples (200 μl) were collected at time ranging from 15 minutes to 24 hours for the p.o. administration and from 5 minutes to 24 hours for the i.v. administration in ice-cold tubes containing 0.2% K2EDTA. Tubes were centrifuged at 10,000 rpm for 5 minutes at 4° C. The plasma (supernatant) was separated in another tube and stored at −80° C. until analysis. Two groups of 3 animals were used for each route of administration: in one group, blood samples were collected to determine the kinetics of plasma exposure over a 24-hour period, and in the second group, blood and brain were collected at one terminal time point (0.5, 1.0, 1.5, 2.0, 4.0 hours) to determine the kinetics of brain exposure and brain/plasma ratio.
The respective parent compound (free base) was analysed in plasma samples and in brain homogenate using a LC-MS/MS method. Concentrations are expressed in ng/ml of plasma or in ng/g of brain tissue.

human mGluR4 = human mGluR4 (Homo sapiens, UniProt Q14833); experiment: calcium assay, agonistic and/or positive allosteric modulator activity; format: cell-based; settings: read-out: EC50 (corresponding to pEC50) (converted)
Protocol: The compound of formula (I) according to the invention (i.e., PXT002331) was tested for its agonistic and/or positive allosteric modulator activity on human mGluR4 using the calcium assay described in Example 171 of WO 2011/051478.

[4] = phase I metabolic stability, CL (h); format: in vitro ADME; settings: human; h of CL (h/r)
Protocol: (§1) The in vitro ADME profile of PXT002331 was also very similar with reference to phase I metabolic stability: CL (h/r): 55/101 μl/min/mg protein and intestinal absorption: CaCo-2 (A-B, pgp): 4.11 .10-6 cm/s, no efflux.

[5] = phase I metabolic stability, CL (r); format: in vitro ADME; settings: rat; r of CL (h/r)
Protocol: as §1

[6] = intestinal absorption CaCo-2 (A-B, pgp); format: in vitro ADME; settings: human, Caco-2; A-B
Protocol: as §1

CaCo-2 = experiment: intestinal absorption CaCo-2 (A-B, pgp); format: in vitro ADME; settings: pgp
Protocol: as §1

plasma protein binding = format: in vitro ADME; settings: read-out: plasma protein binding, free fraction
solubility in water = format: physicochemical; settings: as hydrochloride salt
[7] = test system: UGT (UDP-Glucuronosyl transferase); experiment: in vitro glucuronidation in rat liver microsomes; format: in vitro ADME; settings: in vitro in the presence of UGT
Protocol: Despite their similar oral absorption, PXT002331 has a higher brain/plasma ratio (6.5 versus 2.0 at T=1.5 h; see FIG. 4) leading to a 3-fold improvement in the brain AUC when compared to PXT001858. A posteriori, one potential hypothesis might rely on the difference of phase II conjugation in the intestine and liver during oral absorption. […] Nonetheless, this difference observed in vitro cannot by itself explain the unexpected advantageous PK results obtained with PXT002331. The results obtained in these experiments are furthermore summarized in Tables 1 to 3 below and in FIGS. 1 to 4.

[8] = test system: MPTP macaque model of L-DOPA-induced dyskinesia; experiment: MPTP macaque model of L-DOPA-induced dyskinesia (LID); format: in vivo
Protocol: Like PD patients, MPTP macaques experience side effects of their long-term L-DOPA therapy, including L-DOPA-induced dyskinesia (LID). This was the case with the MPTP macaques that were at an advanced stage of parkinsonism used in this experiment. PXT002331 was tested in these monkeys, using the dose of 25 mg/kg in combination with L-DOPA.
Moreover, this was observed as early as day 1, which corresponds to an acute administration of PXT002331, and is maintained after a sub-chronic treatment (twice daily for 8 consecutive days). Importantly, the efficacy of L-DOPA for reducing parkinsonian symptoms (tremor, posture, mobility) was maintained in association with PXT002331 dose, as shown in FIG. 9B.

MPTP macaques = experiment: general behavior, adverse events in MPTP macaques; format: in vivo, Macaca fascicularis; settings: alone or with L-DOPA, even at high doses
Protocol: Adverse events and side effects of PXT002331 were analyzed during each study performed in macaques (see Example 3).

[9] = p.o. 10 mg/kg, vehicle Tween-80/Ethanol/30% HPBCD (2/10/88)

human mGluR4, sequence (Q14833 33-912): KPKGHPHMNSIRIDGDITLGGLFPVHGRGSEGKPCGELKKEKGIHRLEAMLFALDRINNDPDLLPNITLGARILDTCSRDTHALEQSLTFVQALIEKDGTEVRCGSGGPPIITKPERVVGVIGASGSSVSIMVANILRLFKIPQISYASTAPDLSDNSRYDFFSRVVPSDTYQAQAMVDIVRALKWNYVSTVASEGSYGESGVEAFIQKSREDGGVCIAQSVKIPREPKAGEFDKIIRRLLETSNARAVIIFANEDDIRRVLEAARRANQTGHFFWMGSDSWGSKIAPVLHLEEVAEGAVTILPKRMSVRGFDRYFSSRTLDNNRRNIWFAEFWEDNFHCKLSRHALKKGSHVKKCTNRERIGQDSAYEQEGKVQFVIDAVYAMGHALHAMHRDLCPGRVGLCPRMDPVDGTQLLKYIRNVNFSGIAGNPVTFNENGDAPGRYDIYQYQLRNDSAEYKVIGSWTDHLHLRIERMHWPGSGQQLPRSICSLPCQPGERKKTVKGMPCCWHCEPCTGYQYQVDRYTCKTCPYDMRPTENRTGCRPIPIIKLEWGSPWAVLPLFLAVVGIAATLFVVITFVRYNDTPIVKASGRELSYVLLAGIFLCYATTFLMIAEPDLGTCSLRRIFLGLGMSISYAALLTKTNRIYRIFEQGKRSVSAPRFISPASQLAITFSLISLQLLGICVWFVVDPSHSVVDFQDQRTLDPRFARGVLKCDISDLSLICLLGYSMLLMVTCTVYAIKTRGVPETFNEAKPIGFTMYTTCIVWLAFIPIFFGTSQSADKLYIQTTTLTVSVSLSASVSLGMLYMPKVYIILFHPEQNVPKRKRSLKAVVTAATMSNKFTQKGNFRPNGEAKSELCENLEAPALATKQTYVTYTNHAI

- dyskinesia (mean dyskinesia score) ([1]; highest doses of L-DOPA): very mild
- dyskinesia ([1]; sub-optimal doses of L-DOPA): weak or absent
- induction of dyskinesia ([2]; L-DOPA alone, model of early stage PD): did not induce dyskinesia
- omissions in VDR task (CLD MPTP macaque model; one out of four animals, optimal dose of L-DOPA alone): ~100%
Structure (SMILES): N[C@@H](Cc1ccc(O)c(O)c1)C(=O)O [L-DOPA, L-3,4-dihydroxyphenylalanine, reference compound]

- Brain AUC inf ([3]; oral 10 mg/kg): 838 ng·h/g
- Cmax (Brain) ([3]; oral 10 mg/kg): 521 ng/G tissue
Structure (SMILES): O/N=c1\cc(-c2cc3sccc3cn2)oc2ccc(OCCN3CCOCC3)cc12 [PXT001858, reference compound]

- EC50 (human mGluR4): ~76 nM
- microsomal CLint [4]: 55 µL/min/mg
- microsomal CLint [5]: 101 µL/min/mg
- Papp A→B [6]: 4.11 ×10⁻⁶ cm/s
- CaCo-2 efflux (CaCo-2): no efflux
- fraction unbound (plasma protein binding): < 0.01
- solubility (solubility in water): > 10000 µg/mL
- Kp at 1.5 h ([3]; male, Sprague-Dawley, brain, oral 10 mg/kg, T = 1.5 h, read-out: Brain/Plasma ratio (T = 1.5 h)): 6.5
- bioavailability ([3]; male, Sprague-Dawley, plasma, oral, p.o. 10 mg/kg vs i.v. 1 mg/kg): 39%
- AUC(0-inf) ([3]; male, Sprague-Dawley, plasma, oral 10 mg/kg): 432 ng·h/mL
- Brain AUC inf ([3]; oral 10 mg/kg): 2713 ng·h/g
- Cmax (Brain) ([3]; oral 10 mg/kg): 818 ng/G tissue
- improvement in brain AUC compared to PXT001858 ([3]; oral 10 mg/kg): 3 fold
- plasma exposure AUC relative to PXT001858 [3, 9]: 1.1 fold
- plasma exposure Cmax relative to PXT001858 [3, 9]: 0.7 fold
- level of glucuronidation compared to PXT001858 [7]: much lower level of glucuronidation
- induction of dyskinesia ([1]; PXT002331 alone, any of the doses tested, more advanced stages of PD): did not induce dyskinesia
- change of dyskinesia by PXT002331 treatment ([1]; added to sub-optimal doses of L-DOPA, any dose tested): not increased
- induction of dyskinesia ([2]; CLD MPTP macaques, PXT002331 alone or in combination with any doses of L-DOPA tested): no induction of dyskinesia
- induction of dyskinesia ([2]; PXT002331 25 to 100 mg/kg + optimal (high) dose of L-dopa): without inducing dyskinesia
Structure (SMILES): O/N=c1\cc(-c2cc3sccc3cn2)oc2ccc(CCCN3CCOCC3)cc12 [PXT002331, 6-(3-morpholin-4-yl-propyl)-2-(thieno[3,2-c]pyridin-6-yl)-4H-chromen-4-one oxime]
- robustness: monkeys improving in parkinsonian score ([1]; PXT002331 25 mg/kg + low dose L-dopa, day 4): all treated monkeys showed a significant improvement in parkinsonian score
- parkinsonian score versus L-dopa (suboptimal dose) alone ([1]; PXT002331 25 mg/kg p.o. twice a day 4 days + suboptimal L-dopa 4-9 mg/kg, day 4): considerable improvement in parkinsonian score
- anti-parkinsonian effect, dose-response evaluation ([1]; PXT002331 2 to 100 mg/kg oral + L-dopa (low dose), day 4): highly potent anti-parkinsonian effect
- anti-parkinsonian activity (parkinsonian score) ([1]; stand-alone treatment, p.o. twice a day for 4 days, score at day 4 over 2 h, n=7): potent anti-parkinsonian activity
- robustness: monkeys responding in locomotor activity ([2]; PXT002331 25 mg/kg + L-dopa): each and every monkey included in the study responded
- locomotor activity ([2]; PXT002331 25 mg/kg oral + low or optimal dose of L-dopa (Madopar), total over 4 hours, N=5): significant improvement in locomotor activity
- disability score ([2]; increasing doses of PXT002331 + L-dopa (optimal dose)): improvement in the disability score
- worsening of cognitive performances in VDR task (CLD MPTP macaque model; PXT002331 25 mg/kg alone or in combination with L-DOPA, N=4): none of the treatments with PXT002331, alone or in combination with L-DOPA, induced any worsening of the cognitive performances
- omission rate in VDR task, change on adding PXT002331 (CLD MPTP macaque model; one out of four animals, PXT002331 25 mg/kg added to optimal dose of L-DOPA): decreased by half
- dyskinesia (mean dyskinesia score over 2 hours) ([8]; PXT002331 25 mg/kg + L-DOPA, 30 min before or same time, day 1 and day 8 (twice daily)): clear reduction of dyskinesia
- robustness: dyskinetic monkeys responding ([8]; PXT002331 25 mg/kg + L-DOPA, N=4 dyskinetic animals): each and every dyskinetic monkey included in the study responded to treatment
- efficacy of L-DOPA for reducing parkinsonian symptoms (tremor, posture, mobility) ([8]; in association with PXT002331 25 mg/kg): maintained
- adverse change in behavior (circling, excitement, lethargy, sleepiness) (MPTP macaques): never induced any apparent adverse change in behavior

Reference: patent US20200171042A1, “BRAIN-PENETRANT CHROMONE OXIME DERIVATIVE FOR THE THERAPY OF LEVODOPA-INDUCED DYSKINESIA” (Prexton Therapeutics SA, priority 2015, published 2020)
